Experiment [1] deals with T1, MAGL (Homo sapiens, UniProt Q99685).
T1 construct: Proteomes (human prefrontal cortex or cell membrane fractions); from tissue
T1 sequence (Q99685 1-303): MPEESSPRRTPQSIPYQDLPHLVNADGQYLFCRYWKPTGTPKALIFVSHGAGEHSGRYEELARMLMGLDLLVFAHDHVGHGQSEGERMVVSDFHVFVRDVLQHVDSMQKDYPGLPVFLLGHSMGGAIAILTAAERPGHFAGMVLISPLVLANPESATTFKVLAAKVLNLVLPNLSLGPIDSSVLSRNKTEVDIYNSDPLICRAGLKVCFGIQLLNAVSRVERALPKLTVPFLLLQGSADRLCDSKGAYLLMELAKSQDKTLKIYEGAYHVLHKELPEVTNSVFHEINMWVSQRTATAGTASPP
The experiment can be described thus: In vitro competitive activity-based protein profiling (gel-based, FP-Rh or HT-01 probe). In kind it is biochemical. An outline of the steps: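 Readout is SDS-PAGE of probe-labelled proteome after FP-Rh or HT-01 (1.0 μL, 50 μM stock) labelling for 30 min at room temperature. Beforehand, inhibitors at varying concentrations were preincubated 30 min at 37° C with human prefrontal cortex or cell membrane fractions at 1.0 mg/mL total protein.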

Experiment [2] concerns the target T2, MGLL (Mus musculus, UniProt O35678).
T2 construct: Brain; from tissue; host or cells: mouse brain proteome
T2 sequence (O35678 1-303): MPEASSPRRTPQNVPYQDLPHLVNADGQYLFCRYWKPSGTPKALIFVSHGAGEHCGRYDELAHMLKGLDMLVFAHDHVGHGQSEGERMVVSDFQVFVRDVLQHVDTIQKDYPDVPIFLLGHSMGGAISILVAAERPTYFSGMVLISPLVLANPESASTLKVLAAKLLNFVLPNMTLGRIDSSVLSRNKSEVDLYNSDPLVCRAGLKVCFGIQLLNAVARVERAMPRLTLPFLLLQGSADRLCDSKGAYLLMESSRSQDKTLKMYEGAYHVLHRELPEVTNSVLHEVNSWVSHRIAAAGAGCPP
The experiment can be described thus: In vitro competitive activity-based protein profiling, mouse brain proteome. In kind it is biochemical. As for the experimental part: [Worded in the source for another species; this species is reported under the same test.] (§1) Proteomes (human prefrontal cortex or cell membrane fractions) (50 μL, 1.0 mg/mL total protein concentration) were preincubated with varying concentrations of inhibitors at 37° C. After 30 min, FP—Rh or HT-01 (1.0 μL, 50 μM in DMSO) was added and the mixture was incubated for another 30 min at room temperature. Reactions were quenched with SDS loading buffer (15 μL-4×) and run on SDS-PAGE.

Experiment [3] addresses T3, MAGL (Mus musculus, UniProt O35678).
T3 construct: from tissue; host or cells: brain of wild-type C57Bl/6J mice
T3 sequence (O35678 1-303): T2 sequence (O35678 1-303)
The experiment can be described thus: Mouse brain proteomes from inhibitor treated mice (oral gavage, brain proteomes analyzed 4 h after administration). Particulars: brain proteome 4 h after administration, read-out: % Inh 5 mg/kg MGLL (Mouse). In kind it is in vivo, mouse (C57Bl/6J). An outline of the steps: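 Wild-type C57Bl/6J mice dosed orally in polyethylene glycol vehicle; brains removed 4 h post-dose and brain proteomes prepared and analysed for MAGL and serine hydrolase activity by previously established methods.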

For experiment [4], the target named is T4, ABHD6 (Mus musculus, UniProt Q8R2Y0).
T4 construct: Brain; from tissue; host or cells: mouse brain proteome
T4 sequence (Q8R2Y0 1-336): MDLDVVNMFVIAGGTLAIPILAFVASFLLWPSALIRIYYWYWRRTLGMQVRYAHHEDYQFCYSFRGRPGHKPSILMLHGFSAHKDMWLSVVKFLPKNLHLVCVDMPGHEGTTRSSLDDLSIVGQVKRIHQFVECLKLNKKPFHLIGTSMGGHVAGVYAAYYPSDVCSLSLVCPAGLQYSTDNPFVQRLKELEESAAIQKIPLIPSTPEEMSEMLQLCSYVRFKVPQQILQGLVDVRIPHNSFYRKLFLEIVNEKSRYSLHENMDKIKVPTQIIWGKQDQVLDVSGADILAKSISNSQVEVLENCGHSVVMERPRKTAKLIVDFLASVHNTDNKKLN
The experiment can be described thus: In vitro competitive activity-based protein profiling, mouse brain proteome, ABHD6. The experiment is classed as biochemical. Particulars: mouse. As for the experimental part:
[Worded in the source for another target; this target is reported under the same test.] as §1

Setting [5] is: PC3 proteome, read-out: IC50 MGLL PC3 (Human).
[6] abbreviates: PFC (prefrontal cortex) proteome, read-out: IC50 MGLL PFC (Human).

Read-outs that look alike come from different tables or passages of the source. Bounds are passed on as bounds.

`O=C(O)CN1CCN(c2cc(C(F)(F)F)ccc2CN2CCCC23CCN(C(=O)OC(C(F)(F)F)C(F)(F)F)CC3)CC1` [Example 3, 2-(4-(2-((8-(((1,1,1,3,3,3-Hexafluoropropan-2-yl)oxy)carbonyl)-1,8-diazaspiro[4.5]decan-1-yl)methyl)-5-(trifluoromethyl)phenyl)piperazin-1-yl)acetic acid]: the IC50 – broadly, the concentration at which inhibition is half-maximal – is < 100 nM in experiment [1] (setting [5]), < 100 nM in experiment [1] (setting [6]), < 100 nM in experiment [2] and > 1000 nM in experiment [4]. Moreover, the “% Inh MGLL PFC (Human, μM)” value in experiment [1] (PFC (prefrontal cortex) proteome) is recorded as “### (### is ≥ 75%)”. In addition, the inhibition at 5 mg/kg in experiment [3] is ≤ 25%.

`O=C(OC(C(F)(F)F)C(F)(F)F)N1CCC2(CCCN2Cc2cc(C(F)(F)F)cc(C3(C(=O)O)CCCC3)c2)CC1` [Example 8, 1-(3-((8-(((1,1,1,3,3,3-Hexafluoropropan-2-yl)oxy)carbonyl)-1,8-diazaspiro[4.5]decan-1-yl)methyl)-5-(trifluoromethyl)phenyl)cyclopentane-1-carboxylic acid]: the half-inhibitory concentration (IC50) in experiment [1] (setting [5]) was < 100 nM; in experiment [1] (setting [6]) it was < 100 nM; in experiment [2], < 100 nM; in experiment [4] it was > 1000 nM. The inhibition at 5 mg/kg in experiment [3] was ≥ 75%.

On to `O=C(O)C1CN(c2cc(C(F)(F)F)ccc2CN2CC3(CCN(C(=O)OC(C(F)(F)F)C(F)(F)F)CC3)C2)CCO1` (stereo not drawn) [Example 20, 4-(2-((7-(((1,1,1,3,3,3-Hexafluoropropan-2-yl)oxy)carbonyl)-2,7-diazaspiro[3.5]nonan-2-yl)methyl)-5-(trifluoromethyl)phenyl)morpholine-2-carboxylic acid], for which the IC50 in experiment [1] (setting [5]) is < 100 nM; in experiment [1] (setting [6]), < 100 nM; in experiment [2], < 100 nM; in experiment [4] it was > 1000 nM. Besides, the inhibition at 5 mg/kg in experiment [3] is ≥ 75%.

For the molecule `O=C(O)C1CCN(c2cc(CN3CC4(CCN(C(=O)OC(C(F)(F)F)C(F)(F)F)CC4)C3)cc(C(F)(F)F)c2)CC1` [Example 99, 1-(3-((7-(((1,1,1,3,3,3-Hexafluoropropan-2-yl)oxy)carbonyl)-2,7-diazaspiro[3.5]nonan-2-yl)methyl)-5-(trifluoromethyl)phenyl)piperidine-4-carboxylic acid], the IC50 in experiment [1] (setting [5]) was < 100 nM; in experiment [1] (setting [6]), < 100 nM; in experiment [2], < 100 nM; in experiment [4], 100 to 1000 nM. Moreover, the inhibition at 5 mg/kg in experiment [3] is 25 to 75%.

In the case of `O=C(OC(C(F)(F)F)C(F)(F)F)N1CCC2(CCN(Cc3ccc(C(F)(F)F)cc3N3CC4CCC(C3)O4)CC2)C1` [Example 190, 1,1,1,3,3,3-Hexafluoropropan-2-yl 8-(2-(8-oxa-3-azabicyclo[3.2.1]octan-3-yl)-4-(trifluoromethyl)benzyl)-2,8-diazaspiro[4.5]decane-2-carboxylate], the figures for the IC50 in experiment [2] and in experiment [4] were < 100 nM and > 1000 nM, respectively. In experiment [3], the inhibition at 5 mg/kg is ≥ 75%.

Regarding `O=C(OC(C(F)(F)F)C(F)(F)F)N1CCC2(CCN(Cc3ccc(Cl)cc3N3CCCCC3)CC2)C1` [Example 191, 1,1,1,3,3,3-Hexafluoropropan-2-yl 8-(4-chloro-2-(piperidin-1-yl)benzyl)-2,8-diazaspiro[4.5]decane-2-carboxylate], the IC50 in experiment [2] was < 100 nM; in experiment [4], > 1000 nM. Further, the inhibition at 5 mg/kg in experiment [3] is ≥ 75%.

As for `O=C(OC(C(F)(F)F)C(F)(F)F)N1CCC2(CCN(Cc3ccc(C(F)(F)F)cc3N3CCC(F)CC3)CC2)C1` [Example 192, 1,1,1,3,3,3-Hexafluoropropan-2-yl 8-(2-(4-fluoropiperidin-1-yl)-4-(trifluoromethyl)benzyl)-2,8-diazaspiro[4.5]decane-2-carboxylate], the IC50 in experiment [2] was < 100 nM; in experiment [4] it was > 1000 nM. Moreover, in experiment [3], the inhibition at 5 mg/kg is 25 to 75%.

On to `CS(=O)(=O)N1CCC2(CCN(c3cc(C(F)(F)F)ccc3CN3CCN(C(=O)OC(C(F)(F)F)C(F)(F)F)CC3)C2)CC1` [Example 196, 1,1,1,3,3,3-Hexafluoropropan-2-yl 4-(2-(8-(methylsulfonyl)-2,8-diazaspiro[4.5]decan-2-yl)-4-(trifluoromethyl)benzyl)piperazine-1-carboxylate], for which the figures for the IC50 in experiment [2] and in experiment [4] were < 100 nM and > 1000 nM, respectively. The inhibition at 5 mg/kg in experiment [3] was ≤ 25%.

Consider `CC(=O)N1CCC2(CC1)CCN(c1cc(C(F)(F)F)ccc1CN1CCN(C(=O)OC(C(F)(F)F)C(F)(F)F)CC1)C2` [Example 197, 1,1,1,3,3,3-Hexafluoropropan-2-yl 4-(2-(8-acetyl-2,8-diazaspiro[4.5]decan-2-yl)-4-(trifluoromethyl)benzyl)piperazine-1-carboxylate], for which the IC50 in experiment [2] is < 100 nM; in experiment [4], > 1000 nM. Besides, the inhibition at 5 mg/kg in experiment [3] is ≤ 25%.

As for `CC(=O)N1CCC2(CC1)CN(c1cc(Cl)ccc1CN1CCN(C(=O)OC(C(F)(F)F)C(F)(F)F)CC1)C2` [Example 198, 1,1,1,3,3,3-Hexafluoropropan-2-yl 4-(2-(7-acetyl-2,7-diazaspiro[3.5]nonan-2-yl)-4-chlorobenzyl)piperazine-1-carboxylate], the IC50 in experiment [2] is < 100 nM; in experiment [4], > 1000 nM. Further, in experiment [3], the inhibition at 5 mg/kg is ≥ 75%.

On to `CC(=O)N1CCC2(CC1)CN(c1cc(C(F)(F)F)ccc1CN1CCN(C(=O)OC(C(F)(F)F)C(F)(F)F)CC1)C2` [Example 199, 1,1,1,3,3,3-Hexafluoropropan-2-yl 4-(2-(7-acetyl-2,7-diazaspiro[3.5]nonan-2-yl)-4-(trifluoromethyl)benzyl)piperazine-1-carboxylate], for which the IC50 is < 100 nM in experiment [2] and > 1000 nM in experiment [4]. Also, the inhibition at 5 mg/kg in experiment [3] was ≥ 75%.

For `CS(=O)(=O)N1CC2(CCN(c3cc(C(F)(F)F)ccc3CN3CCN(C(=O)OC(C(F)(F)F)C(F)(F)F)CC3)CC2)C1` [Example 211, 1,1,1,3,3,3-Hexafluoropropan-2-yl 4-(2-(2-(methylsulfonyl)-2,7-diazaspiro[3.5]nonan-7-yl)-4-(trifluoromethyl)benzyl)piperazine-1-carboxylate], the values for the IC50 in experiment [2] and in experiment [4] were < 100 nM and > 1000 nM, respectively. Besides, the inhibition at 5 mg/kg in experiment [3] is ≥ 75%.

In the case of `CS(=O)(=O)N1CC2(CCN(c3cc(Cl)ccc3CN3CCN(C(=O)OC(C(F)(F)F)C(F)(F)F)CC3)CC2)C1` [Example 212, 1,1,1,3,3,3-Hexafluoropropan-2-yl 4-(4-chloro-2-(2-(methylsulfonyl)-2,7-diazaspiro[3.5]nonan-7-yl)benzyl)piperazine-1-carboxylate], the IC50 is < 100 nM in experiment [2] and > 1000 nM in experiment [4]. Also, in experiment [3], the inhibition at 5 mg/kg is ≥ 75%.

In the case of `CC(=O)N1CC2(CCN(c3cc(Cl)ccc3CN3CCN(C(=O)OC(C(F)(F)F)C(F)(F)F)CC3)CC2)C1` [Example 213, 1,1,1,3,3,3-Hexafluoropropan-2-yl 4-(2-(2-acetyl-2,7-diazaspiro[3.5]nonan-7-yl)-4-chlorobenzyl) piperazine-1-carboxylate], the IC50 in experiment [2] was < 100 nM; in experiment [4] it was > 1000 nM. For the same molecule, the inhibition at 5 mg/kg in experiment [3] is ≥ 75%.

For the molecule `CS(=O)(=O)N1CCC2(CCN(c3cc(CN4CCCC45CN(C(=O)OC(C(F)(F)F)C(F)(F)F)C5)cc(C(F)(F)F)c3)CC2)C1` [Example 233, 1,1,1,3,3,3-Hexafluoropropan-2-yl 5-(3-(2-(methylsulfonyl)-2,8-diazaspiro[4.5]decan-8-yl)-5-(trifluoromethyl)benzyl)-2,5-diazaspiro[3.4]octane-2-carboxylate], the IC50 was < 100 nM in experiment [2] and > 1000 nM in experiment [4]. Further, the inhibition at 5 mg/kg in experiment [3] was ≤ 25%.
